Drawing on PubChem BioAssay AID179 (DTP/NCI, 2004), this text covers EC50, IC50 and outcome for 67 compounds.

Molecules are shown by their SMILES. pEC50, pIC50: −log10 of the molar value. Active and inactive are the calls of the source.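 The calls were made as follows: active = compounds giving half or more protection of infected cells from virus-caused growth loss, again on retest; inactive = the rest.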 Some results are limits rather than exact numbers.

The test system of the experiment is CEM cells HIV-1 protection, formazan growth assay. As to the kind of experiment: NCI AIDS Antiviral Assay. As to conditions: for pIC50: measured here: growth of uninfected CEM cells. In short, it runs like this: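 Five concentrations of each compound were applied to infected and uninfected human CEM cells. Protection from HIV-1 was judged from growth measured with a soluble formazan assay.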

For `COc1ccc(NC(=O)C(=O)Cc2ccc([N+](=O)[O-])c([N+](=O)[O-])c2CC(=O)C(=O)Nc2ccc(OC)cc2OC)c(OC)c1`, the pEC50 (as a rule, the negative decadic logarithm of the EC50, by convention in mol/L) was under 3.39 and the pIC50 (usually −log10 of the IC50, conventionally taken in molar units) was 3.73.
For `COc1ccc(/C=C2/C(=O)C(c3ccccc3)N(c3ccccc3)C2=O)cc1OC` (stereo unspecified), in that order: under 3.70 and 3.97.
For `O=C1CSC(c2ccc(Cl)cc2)N1c1ccc(-c2ccc(-n3c(-c4ccccc4)nc4ccccc4c3=O)cc2)cc1` (stereo unspecified), in that order: under 3.70 and 4.32.
For `Cn1cc(NC(=O)Nc2cc(C(=O)Nc3cc(C(=O)Nc4cc(S(=O)(=O)O)c5cc(S(=O)(=O)O)cc(S(=O)(=O)O)c5c4)n(C)c3)n(C)c2)cc1C(=O)Nc1cc(C(=O)Nc2cc(S(=O)(=O)O)c3cc(S(=O)(=O)O)cc(S(=O)(=O)O)c3c2)n(C)c1`, in that order: 5.33 and 3.65.
With `O=C(Cn1ccnc1[N+](=O)[O-])NCCO`, the result was inactive.
As to `FC(F)(F)C(C1=NC(C(F)(F)F)(C(F)(F)F)N=C(N2CCOCC2)O1)C(F)(F)F`, the pEC50 was under 5.70 and the negative logarithm of the IC50 (pIC50) was under 5.70.
In the case of `O=[N+]([O-])c1cccc(C=NC23CC4CC(CC(C4)C2)C3)c1`, the pEC50 was under 4.18 and the pIC50 is under 4.18.
In the case of `CC(=O)OCC1OC(n2c(-c3ccccc3)cc(-c3ccccc3)c(C#N)c2=O)C(OC(C)=O)C(OC(C)=O)C1OC(C)=O` (stereo unspecified), the pEC50 was under 4.78 and the pIC50 was under 4.78.
Turning to `O=C(/N=C/c1c(O)c2ccccc2oc1=O)Oc1ccccc1`, the pEC50 is under 4.00 and the pIC50 is 4.48.
For `C=[N+](CNC(=O)CNC(=O)C(Cc1ccc([N+](=O)[O-])cc1)NC(=O)OC(C)(C)C)C(=O)CNC(=O)C(Cc1ccc([N+](=O)[O-])cc1)NC(=O)OC(C)(C)C` (stereo unspecified), in that order: under 3.70 and 4.05.
The corresponding values for `c1ccc(SC2=C(Sc3ccccc3)CC2)cc1` are under 3.70 and 4.05.
In the case of `[N-]=[N+]=Nc1cc(=O)n2c3c(cccc13)CCC2`, the result was inactive.
With `COC(=O)c1ccc(C)cc1/C=C1\Cc2ccc(C)cc2C1=O`, the pEC50 was under 3.70 and the negative logarithm of the IC50 (pIC50) was 4.73.
The corresponding values for `Cn1c(-c2cccs2)cc(-c2cccs2)c1-c1cccs1` are under 3.70 and 4.47.
For the compound `Cc1cn(C2CC(N=[N+]=[N-])C(COC(=O)CCCCCCCCCCBr)O2)c(=O)[nH]c1=O` (stereo unspecified), the outcome was active and the pIC50 is 3.96.
As for `CC(C)(C)OC(=O)N1CC(O)O[C@H](c2ccccc2)[C@@H]1c1ccccc1` (stereo partly specified), the pEC50 was under 3.70 and the pIC50 is 4.49.
In the case of `CCCCN=C(c1ccccc1)N1CCOCC1`, the pEC50 is under 3.70 and the negative-log IC50 (pIC50) is under 3.70.
Take `COc1ccc(Br)c(CCCCCCCC(=O)O)c1`: the pEC50 is under 4.00 and the pIC50 was under 4.00.
On to `Cn1cnc([N+](=O)[O-])c1Sc1nc2ccccc2[nH]1`, for which the pEC50 is under 4.72 and the pIC50 is 5.16.
For `COc1cc2c(c(Cl)c1OC)CCN(C)CC2c1ccccc1` (stereo unspecified), in that order: under 3.70 and 4.15.
For `CCOc1ccc(NCC(=O)N2CC(=O)Nc3cc(C)c(C)cc32)cc1`, in that order: under 4.69 and under 4.69.
For `Cc1ccc2nc(C=Nc3ccccc3Cl)cc(C)c2c1`, in that order: under 3.70 and 4.98.
Consider `O=[N+]([O-])c1cccc2nccc(NCC(O)CO)c12` (stereo unspecified), for which the pEC50 is under 3.70 and the negative logarithm of the IC50 (pIC50) is 5.21.
Turning to `CC(=O)Nc1ccc(OC2=CCN(C)CC2)cc1`, the pEC50 is under 3.70 and the pIC50 is under 3.70.
Turning to `COc1ccccc1NC(=O)CC(=O)N1N=C(N(c2ccccc2)c2ccccc2)CC1c1ccccc1` (stereo unspecified), the result was inactive and the negative-log IC50 (pIC50) was under 4.00.
As to `Cc1nn(-c2ccccc2)c2c1N=C(C(=O)O)CC(c1ccccc1)=N2`, the pEC50 was under 3.70 and the pIC50 is 4.04.
For `Cc1cc(=O)[nH]c(NN2C(Cl)C(=O)C2c2cccc([N+](=O)[O-])c2)n1` (stereo unspecified), in that order: under 4.27 and 4.81.
For `Oc1cccnc1/C=N/OCc1ccccc1`, in that order: under 3.53 and 3.66.
The corresponding values for `C=CCSCCCC#Cc1ccccc1C(=O)OC` are under 3.70 and 3.82.
With `CC(=O)NC(C)(C)C1CCC(C)=C(c2ccccc2)C1` (stereo unspecified), the pEC50 is under 4.02 and the pIC50 is 4.32.
Turning to `Cc1cc(C)nc(NS(=O)(=O)c2ccc(NC(=O)c3cccc4c(=O)c5ccccc5[nH]c34)cc2)n1`, the outcome was inactive.
As for `COc1nc2[nH]c(C)cc(=O)c2c2ccccc12`, the pEC50 was under 3.70 and the negative-log IC50 (pIC50) is under 3.70.
As for `O=[N+]([O-])c1ccc(/C(=C\c2ccccc2)Cn2ccnc2)cc1`, the pEC50 was under 3.70 and the pIC50 was 4.50.
For `Cc1ccc(N2C(=O)C=C(C3=C(O)C(=O)N(c4ccc(C)cc4)C3=O)C2=O)cc1`, in that order: 3.87 and under 3.70.
For `CC(C)(C)NC1=NC(C(F)(F)F)(C(F)(F)F)NC(=O)N1`, in that order: under 3.70 and 4.15.
For `Cc1ccc(S(=O)(=O)n2c3c(c4ccccc42)CCN2CCC(Br)C[C@@H]32)cc1` (stereo partly specified), in that order: under 3.70 and 4.68.
In the case of `COC1/C=C/OC2(C)Oc3c(C)c(O)c4c(O)c(cc(OCC(=O)N(C)C)c4c3C2=O)NC(=O)/C(C)=C/C=C/C(C)C(O)C(C)C(O)C(C)C(OC(C)=O)C1C` (stereo unspecified), the pEC50 was under 3.70 and the pIC50 was 4.50.
Regarding `COC12OCCN(C)C1=CC(=O)C1=NNC(C)C12` (stereo unspecified), the result was inactive.
Turning to `O=c1[nH]c(=O)n(C2CC(O)C(CO)O2)cc1OCC1CCCCC1` (stereo unspecified), the pEC50 was under 3.70 and the negative-log IC50 (pIC50) is under 3.70.
Consider `Cc1cc(C)c(NS(=O)c2cccc(Cl)c2)c(C)c1` (stereo unspecified), for which the pEC50 was under 3.91 and the negative-log IC50 (pIC50) is under 3.91.
Turning to `CN(C)Cc1cc(C(=O)/C=C/c2ccc(O)cc2)cc(CN(C)C)c1O`, the outcome was inactive.
Turning to `COC(=O)C(Cc1nc2ccc(Cl)cc2[nH]c1=O)C(=O)C(=O)Nc1ccccc1[N+](=O)[O-]` (stereo unspecified), the pEC50 is under 3.83 and the negative logarithm of the IC50 (pIC50) is under 3.83.
With `O=C1NC(O)c2cccc([N+](=O)[O-])c2O1` (stereo unspecified), the pEC50 is under 3.70 and the pIC50 was 4.21.
For `O=C(N/C(=C\c1ccc(Cl)cc1)c1nc2ccccc2[nH]1)c1ccccc1`, in that order: under 4.16 and 4.23.
The corresponding values for `CCN(Cc1ccccc1)c1ccc(/C=C/c2nccc3ccccc23)cc1` are under 4.84 and 4.85.
Turning to `C[n+]1c(-c2ccc(/C=N/NC(=O)c3ccc(C(=O)N/N=C/c4ccc(-c5cn6ccccc6[n+]5C)cc4)nc3)cc2)cn2ccccc21`, the pEC50 is 5.58 and the negative logarithm of the IC50 (pIC50) is 4.66.
For `N#Cc1nsnc1-c1nc(-c2nsnc2C#N)nc(-c2nsnc2C#N)n1`, in that order: under 3.70 and 3.85.
For `COc1cc2c(cc1O)C1C(O2)c2cc3c(cc2OC1(C)C)OC(C)(C)CC3` (stereo unspecified), in that order: under 3.70 and 4.54.
For `Cc1cc(NS(=O)(=O)c2ccc(N)cc2)sn1`, in that order: under 3.70 and under 3.70.
For `CCSc1ccc2c3c(cccc13)C(=O)N(CCc1ccccn1)C2=O`, the pEC50 was under 3.70 and the negative logarithm of the IC50 (pIC50) was under 3.70.
Consider `C=CCC1(C(=O)OC(C)(C)C)C(OC)=C(C(=O)OC(C)(C)C)C2C1C(C(=O)OC(C)(C)C)=C(OC)C2(CC=C)C(=O)OC(C)(C)C` (stereo unspecified), for which the outcome was inactive.
On to `CC1(CO)CCCC/C1=N\Nc1cc([N+](=O)[O-])cc([N+](=O)[O-])c1` (stereo unspecified), for which the pEC50 was under 3.30 and the pIC50 is 4.72.
The corresponding values for `COc1ccc(C=C2C(=O)NC(=O)NC2=O)cc1OCc1ccccc1` are under 3.70 and 4.61.
`C[CH2][Sn]([CH2]C)([O]C(=O)c1cc(OC)c(OC)c(OC)c1)[O][Sn]([CH2]C)([CH2]C)[O]C(=O)c1cc(OC)c(OC)c(OC)c1`: the pEC50 is under 5.18 and the negative-log IC50 (pIC50) is under 5.18.
Regarding `O=C(Cc1nc2ccc([N+](=O)[O-])cc2[nH]c1=O)C(=O)Nc1cc(Cl)c(Cl)cc1Cl`, the pEC50 is under 4.53 and the negative logarithm of the IC50 (pIC50) was 4.95.
For `C=C1C(=O)O[C@H]2C/C(C=O)=C\[C@H]3O[C@H]3/C(COC(=O)C(C)C)=C/CC12` (stereo partly specified), in that order: under 3.70 and 5.79.
For `CC(C)(C)c1cc(-c2cc(C(C)(C)C)[nH]n2)n[nH]1`, in that order: under 3.70 and under 3.70.
For `CN/N=C(\C(=O)Nc1ccc(C)c(C)c1)C(C(=O)OC)c1nc2ccc([N+](=O)[O-])cc2[nH]c1=O` (stereo unspecified), the pEC50 is under 4.11 and the pIC50 was under 4.11.
As to `CSC1=NN(c2ccccc2)C(=O)C1=C(SC)SC`, the pEC50 is under 3.70 and the negative logarithm of the IC50 (pIC50) is 4.60.
The corresponding values for `CCOP(=O)(OCC)C(Cc1ccc(OC)cc1)NC(=O)C(CC(C)C)NC(=O)OCc1ccccc1` (stereo unspecified) are under 3.90 and 5.05.
For `COC(=O)c1c(C)cccc1C1CN=NC12Cc1c(C)cccc1C2=O` (stereo unspecified), in that order: 4.44 and 4.14.
For `Cc1ccc2ccccc2c1CSc1ncnc2c1ncn2C1OC(CO)C(O)C1O` (stereo unspecified), in that order: under 3.70 and 4.61.
For the compound `O=C1NC(=O)C(F)(n2cc(F)c(=O)[nH]c2=O)C(O)N1` (stereo unspecified), the pEC50 was under 3.70 and the pIC50 was 4.26.
Take `O=c1oc2ccccc2c(O)c1C(c1ccc([N+](=O)[O-])cc1)c1c(O)c2ccccc2oc1=O`: the outcome was inactive.
Turning to `CC(=O)OCC1OC(n2c(-c3ccccc3)c(C)c(C)c(C#N)c2=S)C(OC(C)=O)C(OC(C)=O)C1OC(C)=O` (stereo unspecified), the pEC50 is under 4.00 and the negative logarithm of the IC50 (pIC50) is under 4.00.
On to `CCCc1cc(=O)oc2c3c(cc(OCC)c12)O[C@H](C)[C@@H](C)C3=O`, for which the pEC50 was under 3.70 and the pIC50 was 5.08.
In the case of `C/C=C(/CCCCOC1CCCCO1)[Si](C)(C)C` (stereo unspecified), the result was inactive.
